# Experiments:
# [1] = system: c-MYC Pu22 G4 DNA in the presence of competitor dsDNA (ds26); test: FRET melting competition assay with dsDNA (ds26); assay type: binding, human; details: 5 at 2 μM, 27 at 5 μM; 0–100 equiv ds26
# Protocol: We next challenged the compounds’ G4 selectivity with a FRET melting competition assay using 5 (2 μM) and 27 (5 μM) with c-MYC Pu22 G4 DNA and increasing amounts of dsDNA (Figure 6D and Table S1). […] In addition, we investigated if we could detect any binding of the compounds to dsDNA using MST with a fluorescently labeled dsDNA (Table S1).
# The FRET occurs between two dyes (5′-FAM as donor and 3′-TAMRA as acceptor) linked at both extremities of a DNA oligonucleotide. When the oligonucleotides are folded into G4 structures, the donor and acceptor are in proximity, which results in an energy transfer from the donor to the acceptor. This process can be detected by a reduction in the fluorescence emission of the donor. Fluorescence emission of the donor is recovered when the temperature increment triggers the thermal denaturation of the G4 structure. The experiments were performed in a Bio-Rad CFX96 real-time PCR device at temperatures from 10 to 95 °C at 1.5 °C/m heating rate using a 492 nm excitation wavelength and a 516 nm detection wavelength in 96-well plates. Each condition was tested in duplicate, and analysis of the data was carried out by using Excel and Origin 8 software. […] The stabilization (ΔTm) is calculated from comparison of Tm of the fluorescently labeled oligonucleotide in the presence or absence of the ligand.
# [2] = system: template not forming a G4 structure (PEPu24T mut); test: Taq polymerase stop (primer extension) assay, non-G4 template; assay type: biochemical
# Text: To challenge all the synthesized compounds (2–11 and 25–29) in a more intricate context, we conducted a Taq polymerase stop assay to evaluate their capacity to impede DNA synthesis through G4 stabilization. In this assay, we compared the progress of the Taq DNA polymerase along two distinct DNA templates: one with a G4 structure (Figure 5) and another serving as a non-G4 control (Figure S21). If an external species (e.g., G4 ligand) binds and stabilizes the G4 structure, the polymerase will be partially halted. The extent of this DNA polymerase stalling is dependent on the ability of the compound to stabilize the G4 on the DNA template. The increased G4 stabilization can be detected as a reduction in the amount of newly synthesized DNA that has reached the end of the DNA template (full-length/end-product). Analysis of these shorter terminated DNA products will give information about the precise location of the DNA polymerase stalling with a single nucleotide resolution. If the ligand imposes little to no stabilization or binding, the G4 is readily resolved by the DNA polymerase, and no difference in the amount of DNA end-product can therefore be expected upon the addition of the compound. […]
# The images were quantified using ImageJ 1.53e software and the percentage of full-length product compared to a sample without compound was calculated. […]
# [3] = system: Tba (thrombin binding aptamer); test: FRET melting assay, Tba G4 DNA; details: 5 at 2 μM, 27 at 5 μM; G4 DNA 0.2 μM
# Protocol: Additional G4 DNA structures were examined in the FRET melting assay to study the selectivity of compound (5) and its methylated analogue (27) toward different G4 structures. Compounds 5 and 27 were tested at 2 and 5 μM, respectively, for their abilities to increase the thermal stability of G4 DNA structures (Figure 6C and Table S1). Overall, this confirms that compound 5 is a much stronger G4 stabilizer, as compared to 27.
# Synthetic labeled oligonucleotides for the FRET study were purchased from Eurofins Genomics. Stock solutions were prepared in MQ-water at 100 μM concentration. The sequences used are listed in Supporting Information Table S1. All the oligonucleotides except Pu22 were prefolded in 10 mM lithium cacodylate buffer (pH 7.4), with 10 mM KCl and 90 mM LiCl by heating for 10 min at 95 °C and then cooling in fridge for at least 1 h. […]
# The FRET occurs between two dyes (5′-FAM as donor and 3′-TAMRA as acceptor) linked at both extremities of a DNA oligonucleotide. […] This process can be detected by a reduction in the fluorescence emission of the donor. Fluorescence emission of the donor is recovered when the temperature increment triggers the thermal denaturation of the G4 structure. […] The stabilization (ΔTm) is calculated from comparison of Tm of the fluorescently labeled oligonucleotide in the presence or absence of the ligand.
Structure (SMILES),change in compound-induced thermal stability of c-MYC Pu22 G4 DNA with increasing dsDNA [1],concentration at which an effect on the Taq polymerase was observed in the absence of a G4 structure [2] [µM],effect on thermal stability of Tba [3]
"Cc1cc(C)c2nc(Nc3nc(C)cc(NCCCN(C)C)n3)nc(C)c2c1 [Compound 5, N4-(3-(Dimethylamino)propyl)-6-methyl-N2-(4,6,8-trimethylquinazolin-2-yl)pyrimidine-2,4-diamine]",No significant change,> 4,Neither compound affected the thermal stability
"Cc1cc(C)c2nc(Nc3nc(C)cc(C)n3)nc(C)c2c1 [Compound 27, N-(4,6-Dimethylpyrimidin-2-yl)-4,6,8-trimethylquinazolin-2-amine]",No significant change,,Neither compound affected the thermal stability
